The source of these data is patent US7888355B2, “Compositions and methods for inhibiting growth and metastasis of melanoma” (Burnham Institute for Medical Research, priority 2007, dated 2011).

The test system of one experiment is SW1 cells. The experiment can be described thus: cells. Type of experiment: cell-based, mouse. Conditions: for effect of JNK inhibitor SP600125 on compound-induced cell death: 30-minute pretreatment with SP600125 (10 μM), then compound 20 h. As for the experimental part: Cell lines. Mouse melanoma (SW1) and human melanoma (LU1205) cells were maintained in DMEM supplemented with 10% FBS, L-glutamine and antibiotics. The human melanoma cell lines MEWO and WM115 were maintained in RPMI supplemented with 10% FBS and antibiotics. Primary mouse melanocytes were cultured in F-12 media supplemented with 10% FBS, antibiotics, IBMX (isobuthyl-methylxantine), bovine pituitary extract, and TPA.
Mitochondrial activity and apoptosis. Cells were exposed to the chemicals for 12-48 hours as indicated in Results. To measure changes in mitochondrial activity reflective of general cell viability, the ATPLITE ATP detection assay was used according to the manufacturer's recommendations (Perkin Elmer). Apoptosis analysis was performed by flow cytometry of PI-stained cells. The percentage of cells to the left of the diploid G0/1 peak, characteristic of hypodiploid cells that have partially lost DNA, was calculated as percentage of apoptotic cells (Bhoumik et al., PNAS 101:4222-7, 2004). Analysis of changes in Caspase 8 expression pattern was performed using immunoblot analysis. […]
Characterization of CSL and AIGA effects on mouse melanoma cells. The structures of AIGA and CSL are depicted in FIGS. 1a and 1b. AIGA was tested for cytotoxicity at concentrations ranging between 0.1 and 2 μM, whereas CSL was used at a concentration of 0.01 to 0.3 μM. SW1 cells or normal melanocytes were seeded on 96 well plates and 24 h late, cells were treated with the indicated concentrations of ATF2 50-100 peptide, AIGA, or CSL for 20 h. ATF2 50-100 peptide (cloned in mammalian expression vector in frame with penetratin was transfected with the aid of lipofectamine) was used as a positive control. ATP levels were used as an indicator of cell viability and were measured using the ATPLITE ATP detection assay kit. The number of surviving cells upon AIGA treatment was normalized to the number of surviving cells under the control treatment, and the normalized number was designated as the “% Viability.” Results shown in FIGS. 1c-1f represent 3 experiments. Treatment of SW1 melanoma cells with 1 μM of AIGA reduced the viability of melanoma cells to 10%, (FIG. 1c). Treatment of the SW1 cells with 0.05 μM of CSL reduced the viability of melanoma cells to 50%, and 0.1 μM reduced it to 10% (FIG. 1d). […] Normal melanocytes and fibroblasts were used as a control.
Thus, the two compounds were evaluated to determine if they require JNK activity for their effects on melanoma cells. To this end, the ability of AIGA or CSL to affect the viability of melanoma cells in the presence of a JNK inhibitor was tested. SW1 cells, with or without a 30-minute pretreatment with the JNK inhibitor SP600125 (10 μM), were contacted with AIGA or CSL at the indicated concentrations for 20 h. ATP levels were used to measure the cell viability using the ATPLITE kit. The number of surviving cells upon AIGA or CSL treatment was normalized to the number of surviving cells under the control treatment, and the normalized number was designated as the “% Viability.” Shown are representative results from 2 experiments. […] Of note, inhibition of JNK activity was more pronounced at lower concentrations of CSL compared with AIGA. […] To assess whether these compounds affect JNK activity, changes in JNK phosphorylation on residues 183/185, which are required for its kinase activity, were monitored. Western blot analysis for JNK phosphorylation on residues 183/185 was performed on protein extracts that were prepared from cells treated with AIGA at concentrations of 0.5 μM, 1.0 μM, and 2.0 μM and a control with no AIGA treatment. Duplicate samples were treated with JNK inhibitor (SP600125). Total level of JNK was analyzed in parallel. […]

A further experiment deals with caspase 8. Description: Caspase 8 immunoblot in SW1 cells. The class given is cell-based, mouse. To be noted: 0.5 μM AIGA, 0.5 or 1.0 μM CSL, 24 hours. As for the experimental part:
Mitochondrial activity and apoptosis. Cells were exposed to the chemicals for 12-48 hours as indicated in Results. To measure changes in mitochondrial activity reflective of general cell viability, the ATPLITE ATP detection assay was used according to the manufacturer's recommendations (Perkin Elmer). Apoptosis analysis was performed by flow cytometry of PI-stained cells. The percentage of cells to the left of the diploid G0/1 peak, characteristic of hypodiploid cells that have partially lost DNA, was calculated as percentage of apoptotic cells (Bhoumik et al., PNAS 101:4222-7, 2004). Analysis of changes in Caspase 8 expression pattern was performed using immunoblot analysis.
Immunoblot analysis. Proteins prepared from cells at the indicated time points using RIPA buffer and 75 μg were separated on SDS-PAGE followed by immunoblot analysis using the antibodies indicated. […]
The finding that CSL and AIGA reduced cell viability in melanoma was made using the ATPLITE assay, which monitors the degree of mitochondrial ATP release, a marker for mitochondrial activity. […] Immunoblot analysis using caspase 8 antibody monitored full length and cleaved forms (active) of caspase 8. β-actin was used as a loading control.
In general terms: Immunoblotting shows a protein as a band on a membrane.

Broadly, the viability is a read-out of living cells in per cent, often relative to untreated cells. Broadly, the EC50 is the concentration that produces a half-maximal response.

With `CC(=O)Oc1c2c(c(CC=C(C)C)c3c1C(=O)C1=C[C@@H]4CC5C(C)(C)OC(C/C=C(\C)C(=O)O)(C4=O)[C@@]15O3)OC(C)(CCC=C(C)C)C=C2` (some centres unmarked) [AIGA, Acetyl isogambogic acid], the “effect of JNK inhibitor SP600125 on compound-induced cell death” value in the experiment on SW1 cells is “attenuated the ability of AIGA or CSL to elicit the cell death”. The viability at 1 µM with SW1 cells (Mus musculus, 20 h, read-out: % Viability of SW1 melanoma cells) is 10%. Besides, the “cleaved (active) forms of caspase 8” value with caspase 8 was “increase in intensity of the cleaved forms caspase 8”.

`CC1=C(O)C(=O)C=C2C1=CC=C1[C@@]2(C)CC[C@@]2(C)[C@@H]3C[C@](C)(C(=O)O)CC[C@]3(C)CC[C@]12C` [Celastrol]: the “effect of JNK inhibitor SP600125 on compound-induced cell death” value in the experiment on SW1 cells was “attenuated the ability of AIGA or CSL to elicit the cell death”. In addition, the viability at 0.05 µM with SW1 cells (Mus musculus, 0.05 μM, 20 h, read-out: % Viability of SW1 melanoma cells) was found to be 50%. For the same compound, in the experiment with SW1 cells (Mus musculus, 0.1 μM, 20 h, read-out: % Viability of SW1 melanoma cells), the viability at 0.1 µM turned out to be 10%. In addition, in the experiment on SW1 cells (Mus musculus, numeric EC50 cells of the column, read-out: Activity or EC50 (μM) in SW1 cells), the EC50 is approximately 0.1 µM. Also, in the experiment with caspase 8, the “cleaved (active) forms of caspase 8” value is on record as “increase in intensity of the cleaved forms caspase 8”.
